The source of these data is patent publication US7282513B2, “Heteroaryl substituted spirocyclic sulfamides for inhibition of gamma secretase” (Merck Sharp & Dohme Limited, priority 2002, dated 2007).

`Cn1nc(-c2ccc(F)cc2)cc1-c1ccc2c(c1)C[C@H]1CC[C@@H](C2)[C@]12CN(CC(F)(F)F)S(=O)(=O)N2` (single isomer, unassigned) [Example 15] displayed a melting point of 185 °C.

A word on the melting point: it is the temperature of the solid-liquid transition.
